Experimental data: patent publication US8877889B2, “Tumor cell-killing peptides” (Industry-Academic Cooperation Foundation, Chosun University, priority 2009, dated 2014)
No end group written: not given here.

Assays:
HeLa cells [1] = experiment: Cytochrome c release by immunofluorescence; format: cell-based; conditions: HeLa cells transfected; 2 days in the presence of zVAD-fmk
Protocol: (B) Plasmids (control vector or Noxa WT fused to GFP) were transfected into HeLa cells. After 2 days in the presence of zVAD-fmk, cytochrome c was stained with anti-cytochrome c antibody. Arrows indicate the diffused cytochrome c staining (upper panel). The release of cytochrome c was analyzed by immunofluorescence in HeLa cells after treatment with MTD peptides (5 μM) (lower panel).

HeLa cells [2] = experiment: Cell death after transfection of Noxa constructs, counting EGFP-positive dead cells; format: cell-based
Protocol: (D) HeLa cells were transfected with deletion mutants of Noxa. At 11 hrs, 24 hrs, and 36 hrs after transfection, cell death was determined by counting EGFP-positive dead cells with morphological changes using the fluorescent microscope.
(B) HeLa cells were transfected with WT or with the indicated Noxa mutants. 20 hours after transfection cell death was determined by counting the EGFP-positive dead and survived cells under the fluorescent microscope.
(A) HeLa cells were transfected with either WT Noxa, 4Lmt (L42A, L43A, L45A, L49A), or 5Lmt (L29A, L42A, L43A, L45A, L49A) constructs. At the indicated times after transfection, cell death was determined by counting the EGFP-positive dead cells with morphological changes under the fluorescent microscope.
HeLa cells were transfected with EGFP-Noxa WT and 41-54 in combination with Bcl-2 expression plasmid or in the presence of zVAD-fmk (25 μM). 18 hours after transfection, cell death was determined by counting EGFP-positive dead cells with morphological changes using the fluorescent microscope. Data represent an average±SD of three experiments each with 200 total cells counted.
The percentage of cell death was determined by counting EGFP-positive dead cells with morphology using the fluorescent microscope. Minimally, 300 cells in three separate fields were counted for each measurement.

[3] = system: CT26 mouse colon carcinoma cells; experiment: Tumor cell killing activity, bright field images; format: cell-based; conditions: 10 μM peptide (FIG. 9A)
Protocol: (A) CT26 cells were treated with 10 μM MTD, TU1:MTD, TU2:MTD, or TU3:MTD peptides, and bright field images for indicated peptides were obtained at indicated time points. Representative images of at least 3 individual experiments were presented.

CT-26 cells = experiment: Syngeneic animal tumor model; format: in vivo; conditions: Balb/c mice with CT26 tumors; for tumor size (tumor volume) versus PBS: i.v. tail vein every two days, TU2:MTD 385 μg/mouse, TU3:MTD 230 μg/mouse; for cell death of tumor cells, histochemical examination of tumors: i.v., hematoxylin and eosin
Protocol: (A) CT26 cells were injected subcutaneously into the Balb/c mice. Tumor cells were grown for 7 days, and TU2:MTD peptide (385 μg/mouse) or PBS was intravenously injected through the tail vein (n=10 animals/group) every two days from day 7 to day 19. Tumor volume was calculated as the longest diameter×width2×0.5.
(B) TU3:MTD peptide (230 μg/mouse) or PBS were intravenously injected to the Balb/c mice bearing tumor through the tail vein (n=5 animals/group) every two days from day 8 to day 20. Tumor volume was measured as described above.
(C) Tumors were obtained from the mice treated with PBS, TU2:MTD or TU3:MTD upon sacrificing the mice, and were stained with hematoxylin and eosin. Images (400× magnification) at tumor regions were obtained (left), and the boxed region were enlarged (right).
(B) CT26 cells were injected subcutaneously into the Balb/c mice. Tumor cells were grown for 7 days, and TU2:MTD peptide (385 μg/mouse) or PBS was intravenously injected through the tail vein (n=10 animals/group) every two days from day 7 to day 19. Tumor weights were measured after mice were sacrificed.
(C) TU3:MTD peptide (230 μg/mouse) or PBS were intravenously injected to the Balb/c mice bearing tumor through the tail vein (n=5 animals/group) every two days from day 8 to day 20. Tumor weights were measured as described above.
(§1) We followed the university's institutional guidelines and regulations for animal experiments. Tumors were established in Balb/c mice by subcutaneous injection of CT-26 cells (1.5×10^5 cells) into the mouse as described (14). Tumor volume was calculated as length×width^2×0.5. Tumor cells were grown for 7 to 8 days, and TU2:MTD peptide (385 μg/mouse), TU3:MTD peptide (230 μg/mouse), or PBS was intravenously injected through the tail vein every two days until the mice were sacrificed.

[4] = Toxicity in peptide-injected mice (histology of skin, liver, kidney; body weight); format: in vivo, Balb/c mice; conditions: for apparent toxic effects in mice: i.v. injected mice; for damage in liver and kidney tissues, microscopic analysis: mice injected seven times every two days; for body weight loss: peptide-injected mice; for cell death in dermis and epidermis regions: peptide-injected tumor-bearing mice, hematoxylin and eosin
Excerpt: (D) Images (400× magnification) of liver and kidney from normal mice or mice treated with, PBS, TU2:MTD or TU3:MTD peptides seven times every two days were obtained after stained with hematoxylin and eosin.
(D) Images (100× magnification) of dermis and epidermis region of normal skin or adjacent to tumor treated with PBS, TU2:MTD or TU3:MTD peptides were obtained after stained with hematoxylin and eosin.
as §1

| Substance | cytochrome c release from mitochondria (HeLa cells [1]) | cell death (HeLa cells [2]; HeLa cells transfected (FIG. 8A)) | cell death after over-expression (HeLa cells [2]; HeLa cells, within 11 hrs after transfection (FIG. 1D)) | inhibition of transfection-induced cell death by zVAD-fmk (HeLa cells [2]; HeLa cells, zVAD-fmk 25 μM, 18 hours after transfection (FIG. 10)) | tumor cell killing activity [3] | tumor size (tumor volume) versus PBS (CT-26 cells) | cell death of tumor cells, histochemical examination of tumors (CT-26 cells) | apparent toxic effects in mice [4] | damage in liver and kidney tissues, microscopic analysis [4] | body weight loss [4] | cell death in dermis and epidermis regions [4] |
| --- | --- | --- | --- | --- | --- | --- | --- | --- | --- | --- | --- |
| WT Noxa: wild type Noxa (1-54) expressed from pEGFP-Noxa by transfection (MPGKKARKNAQPSPARAPAELEVECATQLRRFGDKLNFRQKLLNLISKLFCSGT; cysteine pairing not given here; also: EGFP fusion (pEGFP-Noxa); UniProt Q13794 1-54, looked up) | able to release the cytochrome c from mitochondria | more than 60% | induced cell death within 11 hrs | significantly inhibited by zVAD-fmk |  |  |  |  |  |  |  |
| CGNKRTRGCGGKLLNLISKLF (TU3-MTD fusion peptide derived from Homo sapiens) [TU3:MTD] |  |  |  |  | comparable killing activities to MTD peptide | significantly smaller tumors | massive cell death of tumor cells | do not show apparent toxic effects | no damages in liver and kidney tissues | no body weight loss | no or little cell death |
| CNGRCVSGCAGRCGGKLLNLISKLF (TU2-MTD fusion peptide derived from Homo sapiens) [TU2:MTD] |  |  |  |  | comparable killing activities to MTD peptide | significantly smaller tumors | massive cell death of tumor cells | do not show apparent toxic effects | no damages in liver and kidney tissues | no body weight loss | no or little cell death |
